Results: paper PMC4185360 (Emerging Microbes & Infections, 2014)
Where “and” joins values, the source holds several entries; their conditions need not be identical. Identical values can stand only once. Counter-ions that a name gives are not always drawn. Like-named read-outs stand apart in the source and are kept apart here.

Columns and labels:
[1] = test system: EV71; experiment: Antiviral potency assay, viral load by qRT-PCR in RD cells; assay type: cell-based; settings: for IC90: read-out: IC90, EV71 replication (viral load by qRT-PCR)
[2] = target: T1, CYP2C9 (Homo sapiens, UniProt P11712); experiment: in vitro; settings: microsomes
[3] = test system: coxsackievirus A16; assay type: cell-based, Coxsackie virus A16 (strain shzh05-1); settings: 50 µM
[4] = cited from earlier work
[5] = target: T1, CYP2C9; experiment: biochemical
[6] = test system: EV71 FY-23; experiment: In vivo anti-EV71 efficacy in adult rhesus monkeys; settings: 50 mg/kg i.v. four times, between days 6 and 9 post-infection
[7] = target: T2, CYP1A2 (Homo sapiens, UniProt P05177); experiment: in vitro; settings: microsomes
T2 sequence (P05177 1-516): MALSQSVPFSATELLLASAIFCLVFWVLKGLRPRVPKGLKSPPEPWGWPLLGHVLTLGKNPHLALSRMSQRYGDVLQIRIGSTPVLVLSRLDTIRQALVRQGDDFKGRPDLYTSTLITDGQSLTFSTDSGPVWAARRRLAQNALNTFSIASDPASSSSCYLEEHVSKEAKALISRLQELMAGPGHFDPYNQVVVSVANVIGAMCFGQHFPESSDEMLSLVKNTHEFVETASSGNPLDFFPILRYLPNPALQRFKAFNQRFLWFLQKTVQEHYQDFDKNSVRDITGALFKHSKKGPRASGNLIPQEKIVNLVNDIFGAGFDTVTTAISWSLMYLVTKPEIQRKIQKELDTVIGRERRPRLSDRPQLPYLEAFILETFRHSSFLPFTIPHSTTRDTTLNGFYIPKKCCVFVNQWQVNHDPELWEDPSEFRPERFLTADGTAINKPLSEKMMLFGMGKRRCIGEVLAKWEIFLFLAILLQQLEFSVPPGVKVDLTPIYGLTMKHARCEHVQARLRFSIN

[8] = test system: EV71; experiment: Time-of-addition assay, single round viral replication in RD cells; assay type: cell-based; settings: 10 µM
Protocol: Single round viral replication is get by infecting RD cell at multiplicity of infection of 5, collecting at 16 h post infection, and testing culture supernatant and intracellular RNA at 16 h post infection.
(A) Time of addition assay. The viral load in supernatant represents the means±s.e.m. of results of experiment with three replicates, and the intracellular viral load represents the result of a single test. […] Data represents the means±s.e.m. of results of experiment with three replications.

[9] = Cynomolgus monkey plasma pharmacokinetics; settings: male, iv, 4.37 mg/kg; for AUC(0-inf): AUC0-inf; for AUC(0-t): AUC0-last; for clearance: Cl; for Vd: Vdss
[10] = target: T3, CYP2D6 (Homo sapiens, UniProt P10635); experiment: biochemical
[11] = test system: EV71; experiment: Viral attachment assay (cell-virus adsorption at 4°C); assay type: cell-based; settings: Enterovirus A, incubated with cells and virus at 4°C, read-out: IC90, virus binding to the cell
[12] = target: CYP3A4 (Homo sapiens, UniProt P08684); experiment: in vitro; settings: human microsomes, probe marker substrate cocktail, 1′-hydroxylation (CYP3A4)
[13] = source not given; cited from earlier work
[14] = test system: EV71 particles; experiment: STD NMR assay of binding to EV71 particles; settings: inactivated, purified EV71; molar ratio 1:100
[15] = target: T3, CYP2D6; experiment: in vitro; settings: human microsomes, probe marker substrate cocktail, O-demethylation (CYP2D6)
[16] = test system: poliovirus-1 (Sabin); assay type: cell-based; settings: TCID50 reduction assay
[17] = test system: mouse-adapted EV71 strain MP10; experiment: In vivo anti-EV71 efficacy in 10-day-old ICR mice; settings: lethal dose EV71 MP10
[18] = Enterovirus A, EV71 isolate Fuyang573, RD cells
[19] = mean of 3 monkeys, 4.37 mg/kg i.v. bolus
[20] = monkey P101, 4.37 mg/kg i.v. bolus
[21] = monkey P102, 4.37 mg/kg i.v. bolus
[22] = monkey P103, 4.37 mg/kg i.v. bolus

Sequence of CYP3A4 (P08684 whole entry): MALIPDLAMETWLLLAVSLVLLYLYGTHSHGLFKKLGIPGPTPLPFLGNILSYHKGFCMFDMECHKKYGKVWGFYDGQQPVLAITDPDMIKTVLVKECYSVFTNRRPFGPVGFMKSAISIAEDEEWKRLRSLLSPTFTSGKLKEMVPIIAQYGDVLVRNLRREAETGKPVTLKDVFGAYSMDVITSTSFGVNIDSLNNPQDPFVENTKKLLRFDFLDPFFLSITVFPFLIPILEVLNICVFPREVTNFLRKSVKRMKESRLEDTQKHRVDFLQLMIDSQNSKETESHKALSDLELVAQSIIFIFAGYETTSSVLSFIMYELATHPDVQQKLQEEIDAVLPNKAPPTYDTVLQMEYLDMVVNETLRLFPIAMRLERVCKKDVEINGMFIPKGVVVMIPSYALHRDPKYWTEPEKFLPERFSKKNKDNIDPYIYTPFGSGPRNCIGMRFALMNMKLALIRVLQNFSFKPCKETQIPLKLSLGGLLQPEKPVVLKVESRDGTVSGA
T1 sequence (P11712 whole entry): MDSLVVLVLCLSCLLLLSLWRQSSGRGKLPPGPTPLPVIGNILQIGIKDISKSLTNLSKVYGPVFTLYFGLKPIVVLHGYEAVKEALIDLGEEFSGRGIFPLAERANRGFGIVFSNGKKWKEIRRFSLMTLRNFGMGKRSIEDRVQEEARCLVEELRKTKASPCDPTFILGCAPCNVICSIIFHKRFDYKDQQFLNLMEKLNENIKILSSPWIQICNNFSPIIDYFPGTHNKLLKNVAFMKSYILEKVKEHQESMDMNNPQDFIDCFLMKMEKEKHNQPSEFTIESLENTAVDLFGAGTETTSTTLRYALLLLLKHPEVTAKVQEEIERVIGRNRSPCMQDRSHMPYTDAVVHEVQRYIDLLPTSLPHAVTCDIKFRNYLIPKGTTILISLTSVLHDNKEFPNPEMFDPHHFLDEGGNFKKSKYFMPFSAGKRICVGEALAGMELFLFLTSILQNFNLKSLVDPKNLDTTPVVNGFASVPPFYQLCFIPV
T3 sequence (P10635 whole entry): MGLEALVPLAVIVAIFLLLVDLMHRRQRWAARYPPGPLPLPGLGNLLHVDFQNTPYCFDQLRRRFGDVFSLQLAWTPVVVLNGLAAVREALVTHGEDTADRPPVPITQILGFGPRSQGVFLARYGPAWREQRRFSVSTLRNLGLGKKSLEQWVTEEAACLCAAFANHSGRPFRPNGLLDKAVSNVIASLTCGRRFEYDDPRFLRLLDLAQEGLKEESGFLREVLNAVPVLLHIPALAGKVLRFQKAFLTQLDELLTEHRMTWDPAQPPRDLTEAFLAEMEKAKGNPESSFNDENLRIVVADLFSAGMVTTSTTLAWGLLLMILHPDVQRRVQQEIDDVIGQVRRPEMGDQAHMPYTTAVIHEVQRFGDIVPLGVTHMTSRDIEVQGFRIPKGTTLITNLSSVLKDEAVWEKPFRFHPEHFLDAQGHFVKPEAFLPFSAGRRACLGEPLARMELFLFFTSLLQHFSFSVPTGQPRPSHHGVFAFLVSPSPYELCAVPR

For `O=S(=O)(O)c1cc(N=C=S)ccc1/C=C/c1ccc(N=C=S)cc1S(=O)(=O)O` [DIDS, 4,4′-diisothiocyanatostilbene-2,2′-disulfonic acid disodium salt], the IC90 ([1]; Enterovirus A, EV71, RD) was 10.3 µM.
For `O=C(Nc1cccc(C(=O)Nc2ccc(S(=O)(=O)O)c3cc(S(=O)(=O)O)cc(S(=O)(=O)O)c23)c1)Nc1cccc(C(=O)Nc2ccc(S(=O)(=O)O)c3cc(S(=O)(=O)O)cc(S(=O)(=O)O)c23)c1` [NF 023, 8,8′-[carbonylbis(imino-3,1-phenylenecarbonylimino)]bis-1,3,5-naphthalene-trisulphonic acid, hexasodium salt], the IC90 [1, 18] was 8.9 µM.
In the case of `O=C(Nc1cc(C(=O)Nc2ccc(S(=O)(=O)O)cc2S(=O)(=O)O)cc(C(=O)Nc2ccc(S(=O)(=O)O)cc2S(=O)(=O)O)c1)Nc1cc(C(=O)Nc2ccc(S(=O)(=O)O)cc2S(=O)(=O)O)cc(C(=O)Nc2ccc(S(=O)(=O)O)cc2S(=O)(=O)O)c1` [NF 449, 4,4′,4″,4″′-[carbonylbis(imino-5,1,3-benzenetriyl-bis(carbonylimino))]tetrakis-1,3-benzenedisulfonic acid, octasodium salt], the IC90 [1, 18] is reported as 0.9 µM.
With `Cc1nc(/N=N/c2ccc(S(=O)(=O)O)cc2S(=O)(=O)O)c(COP(=O)(O)O)c(C=O)c1O` [PPADS, pyridoxal phosphate-6-azo (benzene-2,4-disulfonic acid) tetrasodium salt hydrate] the IC90 [1, 18] was 7 µM.
Work on `Cc1nc(/N=N/c2cc(S(=O)(=O)O)ccc2S(=O)(=O)O)c(COP(=O)(O)O)c(C=O)c1O` [iso-PPADS, pyridoxalphosphate-6-azophenyl-2′,5′-disulfonic acid tetrasodium salt] yielded an IC90 [1, 18] of 6.4 µM.
Molecule `Cc1ccc(C(=O)Nc2ccc(S(=O)(=O)O)c3cc(S(=O)(=O)O)cc(S(=O)(=O)O)c23)cc1NC(=O)c1cccc(NC(=O)Nc2cccc(C(=O)Nc3cc(C(=O)Nc4ccc(S(=O)(=O)O)c5cc(S(=O)(=O)O)cc(S(=O)(=O)O)c45)ccc3C)c2)c1` [suramin, Suramin sodium salt] has an inhibition at 10 min, 10 µM [2] of 0%, an inhibition at 10 min, 30 µM [2] of 8% and an inhibition at 10 min, 100 µM [2] of 32%. The “reduction of coxsackievirus A16 replication” value [3] was 10^6 TCID50/mL, the half-life [4] was “long” and the IC50 [5] was over 100 µM. The “viral genomic RNA in serum” value [6] was < 20 copies of viral genomic RNA/mL, the inhibition at 10 min, 10 µM [7] was 40% and the inhibition at 10 min, 30 µM [7] was 70%. The inhibition at 10 min, 100 µM [7] was 89%, the “effect on viral replication” value ([8]; added after adsorption) was “no effect” and the “decrease of viral replication” value ([8]; added at the virus-cell adsorption stage) was over 1 log10. For the same molecule, the AUC(0-inf) [9, 19] was 2330 µg·h/mL, the AUC(0-inf) [9, 20] was 1960 µg·h/mL and the AUC(0-inf) [9, 21] was 2400 µg·h/mL. For the same molecule, the AUC(0-inf) [9, 22] was 2620 µg·h/mL, the AUC(0-t) [9, 19] was 1800 µg·h/mL and the AUC(0-t) [9, 20] was 1660 µg·h/mL. It also gave an AUC(0-t) [9, 21] of 1810 µg·h/mL, an AUC(0-t) [9, 22] of 1930 µg·h/mL and a C0 ([9]; C0, mean of 3 monkeys, 4.37 mg/kg i.v. bolus) of 128 µg/mL. It also gave a C0 ([9]; C0, monkey P101, 4.37 mg/kg i.v. bolus) of 143 µg/mL, a C0 ([9]; C0, monkey P102, 4.37 mg/kg i.v. bolus) of 96.3 µg/mL and a C0 ([9]; C0, monkey P103, 4.37 mg/kg i.v. bolus) of 146 µg/mL. The clearance [9, 19] was 1.9 mL/h/kg, the clearance [9, 20] was 2.23 mL/h/kg and the clearance [9, 21] was 1.82 mL/h/kg. For the same molecule, the clearance [9, 22] was 1.67 mL/h/kg, the Cmax [9, 19] was 142 µg/mL and the Cmax [9, 20] was 169 µg/mL. It also gave a Cmax [9, 21] of 117 µg/mL, a Cmax [9, 22] of 141 µg/mL and a half-life ([9]; T1/2, mean of 3 monkeys, 4.37 mg/kg i.v. bolus) of 104 h. The half-life ([9]; T1/2, monkey P101, 4.37 mg/kg i.v. bolus) was 69.1 h, the half-life ([9]; T1/2, monkey P102, 4.37 mg/kg i.v. bolus) was 112 h and the half-life ([9]; T1/2, monkey P103, 4.37 mg/kg i.v. bolus) was 130 h. It also gave a Tmax [9, 19] of 3.6 min, a Tmax [9, 20] of 4.8 min and a Tmax [9, 21] of 4.8 min. For the same molecule, the Tmax [9, 22] was 1.8 min, the Vd [9, 19] was 0.199 L/kg and the Vd [9, 20] was 0.176 L/kg. For the same molecule, the Vd [9, 21] was 0.212 L/kg, the Vd [9, 22] was 0.21 L/kg and the IC50 [10] was > 100 µM (2×) and 45.5 µM. The IC90 [11] was 6.17 µM, the inhibition at 10 min, 10 µM [12] was 5% and the inhibition at 10 min, 30 µM [12] was 16%. For the same molecule, the inhibition at 10 min, 100 µM [12] was 34%, the serum protein binding [13] was “high levels” and the “STD NMR signals with EV71 particles” value [14] was “strong STD NMR signals”. It also gave an inhibition at 10 min, 10 µM [15] of 7%, an inhibition at 10 min, 30 µM [15] of 40% and an inhibition at 10 min, 100 µM [15] of 49%. The “inhibition of poliovirus-1 (Sabin)” value [16] was “not inhibited”, the survival rate ([17]; 50 mg/kg i.p. twice daily for 7 days) was 30% and the decrease of mortality ([17]; mice) was 30%.
Sucralfate sodium gave an IC90 ([1]; EV71 isolate Fuyang573, RD cells) of 3.3 µM.
With heparin sodium salt the “IC90, EV71 replication” value [1] was 24.3 µg/mL.
